Experimental data taken from patent US5478838A, “4-amino(alkyl)cyclohexane-1-carboxamide compound and use thereof” (Yoshitomi Pharmaceutical Industries, Ltd., priority 1991, dated 1995).

Tests used:
[1] = system: experimental asthma caused by histamine inhalation; experiment: Effects on experimental asthma caused by histamine inhalation, Pharmacological Experiment 5; format: in vivo, guinea pig (Hartley); settings: 0.2% histamine
Description: According to Suyama [Allergy, vol. 15, p. 549 (1966)], female Hartley guinea pigs weighing 490-630 g were placed in an aerosol inhalation device, and 0.2% histamine solution (histamine chloride, Nakarai Kagaku, Japan) was sprayed with an ultrasonic nebulizer (TUR-3200, Nihon Kohden, Japan). Protective action was examined using collapsing as an index. Inhalation of the test compound was performed by placing the guinea pigs in the aforementioned aerosol inhalation device and spraying the test compound dissolved in a physiological saline to a predetermined concentration for 5 minutes. Then, the guinea pigs were allowed to immediately inhale histamine and delay in collapsing by dyspnea was measured.

[2] = Antihypertensive action in conscious, unrestrained SHR (i.v.), Pharmacological Experiment 1; format: in vivo, spontaneously hypertensive rats (SHR); settings: 0.3 mg/kg i.v., change in blood pressure
Source text: Catheters for blood pressure measurement and for drug administration were previously inserted into carotid artery and jugular vein of spontaneously hypertensive rats (SHR) weighing 350-450 g. […] The blood pressure was automatically measured and analyzed with a pressure transducer.

left coronary artery = experiment: Effect on coronary blood flow, perfused left coronary artery of anesthetized dogs, Pharmacological Experiment 3; format: in vivo, mongrel dog; settings: intracoronary injection; for Increase in coronary blood flow, ED50: dose giving half of the effect of 3 μg nifedipine
Description: Groups of 2 or 3 adult mongrel dogs were anesthetized with an intravenous administration of 30 mg/kg body weight of sodium pentobarbital. According to the method of Yago et al [Folia Pharmacologica Japonica, vol. 57, p. 380 (1961)], the left coronary artery was perfused and its blood flow was measured. Test compound was injected into the coronary artery at a volume of 10-300 μg. The effects of the test compound on coronary blood flow were expressed as ED50 (μg), the dose required to increase the coronary blood flow by a half of the effects by the coronary artery injection of 3 μg of nifedipine [dimethyl 2,6-dimethyl-4-(2-nitrophenyl)-1,4-dihydropyridine-3,5-dicarboxylate].
The half life (T 1/2, minute) was also measured as the duration of effects.

trachea = experiment: Effect on acetylcholine-induced contraction of isolated trachea strips (bronchodilation), Pharmacological Experiment 4; design: species or system guinea pig (Hartley); settings: Cavia porcellus; acetylcholine 10^-6 M contraction; papaverine 10^-4 M response taken as 100%
Description: Male Hartley guinea pigs weighing 260-390 g were anesthetized with sodium pentobarbital (100 mg/kg, i.p.). The guinea pigs were then dehematized and trachea was isolated. Ventral cartilage of the trachea was incised and ligament was insected to give 3 mm wide strips. The strips were suspended in a 40 ml-Magnus bath filled with Krebs-Henseleit solution (NaCl 117 mM; KCl 4.7 mM; CaCl2 2.5 mM; MgSO4 1.2 mM; NaHCO3 24.8 mM; KH2 PO4 1.2 mM; glucose 11.0 mM). The resting tension of 1 g was applied. The Magnus bath was constantly aerated with a mixed gas (95% oxygen+5% carbon dioxide gas). The tension of the strips was measured with an isometric transducer (TB-611T, Nihon Kohden, Japan) and recorded on a recorder (Ti-102, Tokai Irika, Japan). The strips were contracted with acetylcholine (10^-6 M) and after the contraction became stable, the compounds were cumulatively added to the bath and relaxing response was observed. The relaxation by the compounds was expressed as IC50 (μM), the concentration required to inhibit the papaverine (10^-4 M)-induced response (which was taken as 100%) by half.

thoracic aorta = experiment: Relaxation of phenylephrine-contracted thoracic aorta ring strips (vasodilation), Pharmacological Experiment 2; settings: Oryctolagus cuniculus; phenylephrine 10^-6 M; rabbit aorta ring strips; read-out: Vasodilation, IC50, concentration required to inhibit phenylephrine-induced contraction by half
Description: Male rabbits (weighing 1.9-3.0 kg) were anesthetized with sodium pentobarbital and dehematized to remove thoracic aorta. Ring strips (about 2 mm wide) were prepared and suspended in a 40 ml-Magnus bath filled with Krebs-Henseleit solution (NaCl 117 mM; KCl 4.7 mH; CaCl2 2.5 mH; MgSO4 1.2 mM; NaHCO3 24.8 mM; KH2 PO4 1.2 mM; glucose 11.0 mM). The resting tension of 2 g was applied. The Magnus bath was constantly aerated with a mixed gas (95% oxygen+5% carbon dioxide gas). The tension of the strips was measured by an isometric transducer (TB-611T, Nihon Kohden, Japan). The strips were contracted with phenylephrine (10^-6 M) and after the contraction became stable, the compounds were cumulatively added to the bath and relaxing response was observed. The vasodilating action of the compounds was expressed as IC50 (μM), the concentration required to inhibit phenylephurine-induced contraction (which was taken as 100%) by half.

Structure (SMILES) | Average time until collapsing ([1]; 0.01% inhaled for 5 minutes) [s] | Average time until collapsing ([1]; 0.1% inhaled for 5 minutes) [s] | Antihypertensive action (SHR i.v.) [2] [mmHg] | Increase in coronary blood flow, T 1/2 (half life as duration of effects) (left coronary artery) [min] | Increase in coronary blood flow, ED50 (left coronary artery) [µg] | IC50 (trachea) [nM] | IC50 (thoracic aorta) [nM]
C[C@@H](N)[C@H]1CC[C@H](C(=O)Nc2ccnc3[nH]ccc23)CC1 [Example 3, (+)-trans-N-(1H-pyrrolo[2,3-b]pyridin-4-yl)-4-(1-aminoethyl)cyclohexanecarboxamide] | 152.4 ± 12.2 | 235.4 ± 40.2 | -62 | 2.7 | 8.8 | 60 | 90
CC(C)(N)[C@H]1CC[C@H](C(=O)Nc2ccnc3[nH]ccc23)CC1 [Example 4, trans-N-(1H-pyrrolo[2,3-b]pyridin-4-yl)-4-(1-amino-1-methylethyl)cyclohexanecarboxamide] |  |  | -77 | 3.8 | 7.0 | 90 | 80
CC(C)(N)[C@H]1CC[C@H](C(=O)Nc2ccnc3[nH]ncc23)CC1 [Example 7, trans-N-(1H-pyrazolo[3,4-b]pyridin-4-yl)-4-(1-amino-1-methylethyl)cyclohexanecarboxamido] |  |  | -53 | 6.7 | 20 | 310 | 190
C[C@@H](N)[C@H]1CC[C@H](C(=O)Nc2ccnc3[nH]ncc23)CC1 [Example 6, (+)-trans-N-(1H-pyrazolo[3,4-b]pyridin-4-yl)-4-(1-aminoethyl)cyclohexanecarboxamide] |  |  | -96 | 3.0 | 4.3 | 170 | 120
